The source of these data is patent publication US9868746B2, “Substituted 5-aminothieno[2,3-C]pyridazine-6-carboxamide analogs as positive allosteric modulators of the muscarinic acetylcholine receptor M4” (Vanderbilt University, priority 2012, dated 2018).

The target of this experiment is T1, mAChR M4 (Homo sapiens, UniProt P08173).
T1 construct: expressed in transfected cells; host or cells: CHO-K1 cells stably transfected with M4 cDNA and chimeric G-protein Gqi5
T1 sequence (P08173 1-479): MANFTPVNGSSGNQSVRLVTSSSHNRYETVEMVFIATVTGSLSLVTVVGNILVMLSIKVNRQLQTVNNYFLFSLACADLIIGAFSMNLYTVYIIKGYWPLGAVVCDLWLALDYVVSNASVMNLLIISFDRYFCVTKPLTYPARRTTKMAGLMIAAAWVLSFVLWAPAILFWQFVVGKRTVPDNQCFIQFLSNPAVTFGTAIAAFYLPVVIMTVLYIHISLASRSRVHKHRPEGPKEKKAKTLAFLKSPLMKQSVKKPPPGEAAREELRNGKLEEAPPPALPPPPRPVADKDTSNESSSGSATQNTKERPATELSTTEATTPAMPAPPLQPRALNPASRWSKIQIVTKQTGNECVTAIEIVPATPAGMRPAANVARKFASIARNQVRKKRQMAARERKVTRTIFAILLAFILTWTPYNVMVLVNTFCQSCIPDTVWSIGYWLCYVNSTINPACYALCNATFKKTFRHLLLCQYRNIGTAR
Briefly: mAChR M4 cell-based functional assay (calcium mobilization, potentiation of EC20 acetylcholine response). The settings on record: for Emax at 30 µM: % ACh maximum at 30 μM; for pEC50: mAChR M4 cell-based functional assay, >10,000 estimated for low potency compounds without plateau, read-out: EC50.

pEC50: −log10 of the molar value. Bounds are passed on as bounds.

For `Cc1nnc2sc(C(=O)NCc3ccc(S(=O)(=O)CF)cc3)c(N)c2c1C` [Example B132], the Emax at 30 µM was found to be 66% and the pEC50 is 7.72.
For `Cc1nnc2sc(C(=O)NC3CN(C(=O)c4ccc5c(c4)OCO5)C3)c(N)c2c1C` [Example B133], in that order: 74% and 7.12.
In the same order, the values of `CC(=O)N1CC(NC(=O)c2sc3nnc(C)c(C)c3c2N)C1` [Example B134] are 67% and 6.28.
In the case of `Cc1nnc2sc(C(=O)NC3CN(C(=O)C4CC4)C3)c(N)c2c1C` [Example B135], the Emax at 30 µM was determined as 73% and the negative logarithm of the EC50 (pEC50) was 6.64.
In the same order, the values of `Cc1nnc2sc(C(=O)NC3CN(S(=O)(=O)c4cn(C)cn4)C3)c(N)c2c1C` [Example B136] are 72% and 6.00.
For `COc1cccc(S(=O)(=O)N2CC(NC(=O)c3sc4nnc(C)c(C)c4c3N)C2)c1` [Example B137], in that order: 70% and 7.00.
In the same order, the values of `Cc1cccc(S(=O)(=O)N2CC(NC(=O)c3sc4nnc(C)c(C)c4c3N)C2)c1` [Example B138] are 65% and 7.24.
For the compound `Cc1nnc2sc(C(=O)NC3CN(S(=O)(=O)c4cccc(Cl)c4F)C3)c(N)c2c1C` [Example B139], the maximum response (Emax) at 30 µM turned out to be 65% and the negative-log EC50 (pEC50) is 7.27.
In the same order, the values of `Cc1nnc2sc(C(=O)NC3CN(S(=O)(=O)c4ccccc4F)C3)c(N)c2c1C` [Example B140] are 72% and 7.37.
For `Cc1nnc2sc(C(=O)NC3CN(S(=O)(=O)c4ccc5ncccc5c4)C3)c(N)c2c1C` [Example B141], in that order: 92% and 7.07.
In the same order, the values of `CCS(=O)(=O)N1CC(NC(=O)c2sc3nnc(C)c(C)c3c2N)C1` [Example B142] are 77% and 6.54.
Take `Cc1nnc2sc(C(=O)NC3CN(S(=O)(=O)c4cccc5c4OCCC5)C3)c(N)c2c1C` [Example B143]: the Emax at 30 µM was determined as 90% and the pEC50 is 6.92.
For `COc1ccc(S(=O)(=O)N2CC(NC(=O)c3sc4nnc(C)c(C)c4c3N)C2)cc1` [Example B144], in that order: 87% and 6.85.
In the same order, the values of `Cc1ccc(S(=O)(=O)N2CC(NC(=O)c3sc4nnc(C)c(C)c4c3N)C2)cc1F` [Example B145] are 82% and 6.89.
`Cc1nnc2sc(C(=O)NC3CN(S(=O)(=O)c4ccc(F)cc4F)C3)c(N)c2c1C` [Example B146]: the Emax at 30 µM stood at 82% and the pEC50 was 7.18.
For `Cc1nnc2sc(C(=O)NC3CN(S(=O)(=O)c4ccc(C(F)(F)F)cc4)C3)c(N)c2c1C` [Example B147], in that order: 95% and 7.06.
Take `Cc1nnc2sc(C(=O)NCC3CCS(=O)(=O)C3)c(N)c2c1C` (stereo not drawn) [Example B148]: the Emax at 30 µM was 50% and the pEC50 is < 5.00.
As to `Cc1nnc2sc(C(=O)NCC3CCS(=O)(=O)CC3)c(N)c2c1C` [Example B149], the Emax at 30 µM is 44% and the negative logarithm of the EC50 (pEC50) was < 5.00.
For the compound `Cc1nnc2sc(C(=O)NC3CN(C(=O)c4ccncc4)C3)c(N)c2c1C` [Example B150], the Emax at 30 µM was 62% and the pEC50 was 6.72.
In the same order, the values of `Cc1nnc2sc(C(=O)NC3CN(C(=O)Oc4ccccc4)C3)c(N)c2c1C` [Example B151] are 57% and 8.02.
For `CCCCCC(=O)N1CC(NC(=O)c2sc3nnc(C)c(C)c3c2N)C1` [Example B152], in that order: 85% and 6.96.
For `COC(=O)N1CC(NC(=O)c2sc3nnc(C)c(C)c3c2N)C1` [Example B153], in that order: 83% and 6.64.
With `Cc1nnc2sc(C(=O)NC3CN(C(=O)Cc4cccs4)C3)c(N)c2c1C` [Example B154], the Emax at 30 µM came to 88% and the pEC50 is 7.15.
For `Cc1nnc2sc(C(=O)NC3CN(C(=O)c4ccc(F)cc4)C3)c(N)c2c1C` [Example B155], in that order: 91% and 7.03.
Consider `Cc1nnc2sc(C(=O)N3CCC(c4ccncc4)C3)c(N)c2c1C` (stereo not drawn) [Example B156], for which the Emax at 30 µM turned out to be 53% and the pEC50 was 5.66.
In the same order, the values of `CC(=O)NC1CN(C(=O)c2sc3nnc(C)c(C)c3c2N)C1` [Example B157] are 32% and < 5.00.
With `Cc1nnc2sc(C(=O)NCc3ccc(O)c(F)c3)c(N)c2c1C` [Example B158], the Emax at 30 µM is 66% and the pEC50 was 7.55.
`Cc1nnc2sc(C(=O)NC3CN(S(=O)(=O)c4ccccc4)C3)c(N)c2c1C` [Example B159]: the Emax at 30 µM was found to be 56% and the pEC50 was 7.09.
For `Cc1nnc2sc(C(=O)NC3CN(C(=O)c4ccccc4)C3)c(N)c2c1C` [Example B160], the Emax at 30 µM was 71% and the pEC50 is 7.11.
In the same order, the values of `COc1ccc(C(=O)N2CC(NC(=O)c3sc4nnc(C)c(C)c4c3N)C2)c(OC)c1` [Example B161] are 61% and 6.70.
For `COCOc1ccc(CNC(=O)c2sc3nnc(C)c(C)c3c2N)cc1F` [Example B162], in that order: 66% and 7.77.
In the case of `Cc1nnc2sc(C(=O)N3CCC(c4ccccc4)C3C)c(N)c2c1C` (stereo not drawn) [Example B163], the Emax at 30 µM was found to be 54% and the pEC50 was 6.62.
For `COc1ccc(C2CCN(C(=O)c3sc4nnc(C)c(C)c4c3N)C2)cc1` (stereo not drawn) [Example B164], in that order: 39% and 6.55.
For `CCCOC(=O)NC(CCl)CNC(=O)c1sc2nnc(C)c(C)c2c1N` (stereo not drawn) [Example B165], the Emax at 30 µM was 32% and the pEC50 was < 5.00.
For `Cc1nnc2sc(C(=O)N3CC(NC(=O)C4CC4)C3)c(N)c2c1C` [Example B166], in that order: 41% and 5.51.
In the same order, the values of `Cc1nnc2sc(C(=O)N3CC(NC(=O)Oc4ccccc4)C3)c(N)c2c1C` [Example B167] are 65% and 6.33.
In the same order, the values of `Cc1nnc2sc(C(=O)NCc3ccc(OC(F)F)cc3)c(N)c2c1C` [Example B168] are 76% and 7.89.
In the case of `Cc1nnc2sc(C(=O)N3CC(NC(=O)c4ccccc4)C3)c(N)c2c1C` [Example B169], the Emax at 30 µM came out at 68% and the pEC50 is 5.82.
For `COC1(c2ccccc2)CN(C(=O)c2sc3nnc(C)c(C)c3c2N)C1` [Example B170], in that order: 60% and 6.33.
In the same order, the values of `COc1ccc(CNC(=O)c2sc3nnc(C)c(C)c3c2N)cc1C(F)(F)F` [Example B171] are 71% and 7.64.
For `Cc1nnc2sc(C(=O)N3CC(NS(C)(=O)=O)C3)c(N)c2c1C` [Example B172], in that order: 51% and < 5.00.
Take `Cc1nnc2sc(C(=O)N3CC(F)(c4ccccc4)C3)c(N)c2c1C` [Example B173]: the Emax at 30 µM came out at 56% and the pEC50 was 6.77.

Usually Emax stands for the greatest response seen or fitted, relative to the assay's reference. One may read the pEC50 as the EC50 on a negative log10 scale, so that one unit is a factor of ten.
